The values below come from US8039496B2, “Therapeutic compounds” (Allergan, Inc., priority 2007, dated 2011).

Read-outs that look alike come from different tables or passages of the source. Where only a bound is given, the exact number is not on record here.

The subject of data set [1] is normotensive dogs. The data set is described as follows: Ocular surface hyperemia in normotensive dogs. The data set is classed as in vivo. On the set-up: scale not given here. As to conditions: once daily for 5 days. On the procedure:
(§1) U.S. Pat. No. 7,091,231 describes the methods used for these in vivo tests. 5-{3-[1R,2S,3R,5R)-5-Chloro-2-(3,5-dichloro-phenoxymethyl)-3-hydroxy-cyclopentyl]-propyl}-thiophene-2-carboxylic acid was tested at multiple concentrations in normotensive dogs, dosing once daily for 5 days. At 0.1%, the maximum intraocular pressure (IOP) decrease from baseline was 7.5 mmHg (48%) at 30 h; the maximum ocular surface hyperemia (OSH) score was 2.75 at 26 h. At 0.01%, the maximum IOP decrease from baseline was 7.5 mmHg (43%) at 76 h; the maximum OSH score was 2.0 at 26 h. At 0.005%, the maximum IOP decrease from baseline was 6.6 mmHg (35%) at 78 h; the maximum OSH score was 1.75 at 74 h. This compound was also tested in laser-induced hypertensive monkeys, using one single day dose. At 0.01%, the maximum IOP decrease from baseline was 20.2 mmHg (53%) at 24 h.

Data set [2] concerns normotensive dogs. The data set is described as follows: Intraocular pressure in normotensive dogs. Format: in vivo. Particulars: Canis lupus familiaris, topical, 120 h, once daily for 5 days, read-out: maximum IOP decrease from baseline (percent). As to the method: as §1
Data set [3] deals with T1, hEP4 (Homo sapiens, UniProt P35408). The data set is described as follows: hEP4 flipr functional assay. The data set is classed as cell-based. An excerpt: (§2) U.S. patent application Ser. No. 11/553,143, filed on Oct. 26, 2006, describes the methods used to obtain the in vitro data in the table below.
Data set [4] addresses T2, hEP2 (Homo sapiens, UniProt P43116). The data set is described as follows: hEP2 flipr functional assay. Format: cell-based.
Source text: as §2

Data set [5] addresses T2, hEP2. The data set is described as follows: hEP2 binding (Ki).
Source text: as §2

Data set [6] addresses T2, hEP2. The data set is described as follows: hEP2 cAMP functional assay. Format: cell-based.
Source text: as §2

Data set [7] concerns the target T1, hEP4. The data set is described as follows: hEP4 binding (Ki).
Source text: as §2

[8] abbreviates: the 2nd table, read-out: hEP4 flipr EC50.
[9] abbreviates: the 2nd table, read-out: hEP2 flipr EC50.
Setting [10] is: the 2nd table, read-out: hEP2 Ki.
[11] abbreviates: the 2nd table, read-out: hEP2 cAMP EC50.
Setting [12] is: the 2nd table, read-out: hEP4 Ki.
[13] abbreviates: the 3rd table, read-out: EP4 data flipr EC50.
Setting [14] is: the 3rd table, read-out: EP2 data flipr EC50.
Where [15] appears, read: the 3rd table, read-out: EP2 data Ki.
Setting [16] is: the 3rd table, read-out: EP2 data cAMP EC50.
Where [17] appears, read: the 3rd table, read-out: EP4 data KI.

One may read the EC50 as the concentration that produces a half-maximal response. The term Ki denotes the dissociation constant of the complex between target and ligand, obtained from inhibition or displacement.

T1 sequence (P35408 whole entry): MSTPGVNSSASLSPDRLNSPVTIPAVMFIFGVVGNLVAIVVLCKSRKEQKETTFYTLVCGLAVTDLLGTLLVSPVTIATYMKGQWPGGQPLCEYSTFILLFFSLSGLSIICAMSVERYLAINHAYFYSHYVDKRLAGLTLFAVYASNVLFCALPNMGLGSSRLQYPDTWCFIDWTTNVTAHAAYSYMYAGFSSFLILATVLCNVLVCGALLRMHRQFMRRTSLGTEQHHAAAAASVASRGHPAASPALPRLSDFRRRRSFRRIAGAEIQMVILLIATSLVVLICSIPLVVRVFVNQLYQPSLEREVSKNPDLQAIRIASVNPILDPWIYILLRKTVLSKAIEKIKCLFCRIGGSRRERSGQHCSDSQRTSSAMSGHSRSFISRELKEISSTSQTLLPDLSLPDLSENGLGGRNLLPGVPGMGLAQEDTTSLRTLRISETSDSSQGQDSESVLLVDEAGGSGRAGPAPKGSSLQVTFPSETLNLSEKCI
T2 sequence (P43116 whole entry): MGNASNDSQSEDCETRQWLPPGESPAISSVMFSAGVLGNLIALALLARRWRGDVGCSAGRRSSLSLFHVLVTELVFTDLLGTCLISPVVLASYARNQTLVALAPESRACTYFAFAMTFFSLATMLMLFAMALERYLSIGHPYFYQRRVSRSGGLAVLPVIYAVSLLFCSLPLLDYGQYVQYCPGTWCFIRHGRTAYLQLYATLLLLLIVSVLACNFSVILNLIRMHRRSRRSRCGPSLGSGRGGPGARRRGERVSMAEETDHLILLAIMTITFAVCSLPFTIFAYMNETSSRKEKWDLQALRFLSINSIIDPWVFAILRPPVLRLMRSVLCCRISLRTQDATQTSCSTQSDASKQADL

As to `Cc1cc(C)cc(OC[C@@H]2[C@@H](CCCc3ccc(C(=O)O)s3)[C@H](Cl)C[C@H]2O)c1` [Example 6, 5-{3-[(1R,2S,3R,5R)-5-Chloro-2-(3,5-dimethyl-phenoxymethyl)-3-hydroxy-cyclopentyl]-propyl}-thiophene-2-carboxylic acid], the “maximum ocular surface hyperemia (OSH) score” value with normotensive dogs [1] (0.01%) was found to be 1.9. Also, the inhibition in vivo at 0.01 % with normotensive dogs [2] came out at 33%.

`O=C(O)c1ccc(CCC[C@@H]2[C@@H](COc3cc(Cl)cc(Cl)c3)[C@H](O)C[C@H]2Cl)s1` [drawing 35, 5-{3-[(1R,2S,3R,5R)-5-Chloro-2-(3,5-dichloro-phenoxymethyl)-3-hydroxy-cyclopentyl]-propyl}-thiophene-2-carboxylic acid]: the EC50 was greater than 10000 nM on hEP4 [3] (setting [8]), 7010 nM at hEP2 [4] (setting [9]) and 0.12 nM on hEP2 [6] (setting [11]). Also, the Ki on hEP2 [5] (setting [10]) was determined as 2 nM; on hEP4 [7] (setting [12]) it was 366 nM.

Turning to `CCc1cc(OC[C@@H]2[C@@H](CCCc3ccc(C(=O)O)s3)[C@H](Cl)C[C@H]2O)ccc1Cl` [5-(3-((1R,2S,3R,5R)-5-chloro-2-((4-chloro-3-ethylphenoxy)methyl)-3-hydroxycyclopentyl)propyl)thiophene-2-carboxylic acid], the concentration giving a half-maximal response (EC50) on hEP4 [3] (setting [13]) came out at 26500 nM; on hEP2 [4] (setting [14]), 31400 nM; at hEP2 [6] (setting [16]), 0.4 nM. Also, the Ki stood at 2 nM on hEP2 [5] (setting [15]) and 177 nM at hEP4 [7] (setting [17]).

Take `O=C(O)c1ccc(CCC[C@@H]2[C@@H](COc3ccc4ccccc4c3)[C@H](O)C[C@H]2Cl)s1` [5-(3-((1R,2S,3R,5R)-5-chloro-3-hydroxy-2-((naphthalen-2-yloxy)methyl)cyclopentyl)propyl)thiophene-2-carboxylic acid]: the EC50 on hEP4 [3] (setting [13]) was greater than 10000 nM; at hEP2 [4] (setting [14]), greater than 10000 nM; at hEP2 [6] (setting [16]), 3 nM. Further, the Ki at hEP2 [5] (setting [15]) was determined as 3 nM; on hEP4 [7] (setting [17]), 227 nM.

Consider `O=C(O)c1ccc(CCC[C@@H]2[C@@H](COc3cc(Cl)cc(Cl)c3)[C@H](O)C[C@H]2F)s1` [5-{3-[(1R,2S,3R,5R)-2-(3,5-Dichloro-phenoxymethyl)-5-fluoro-3-hydroxy-cyclopentyl]-propyl}-thiophene-2-carboxylic acid], for which the 50% effective concentration (EC50) is greater than 10000 nM on hEP4 [3] (setting [8]), 83 nM at hEP2 [4] (setting [9]) and 0.7 nM at hEP2 [6] (setting [11]). Also, the results for the Ki at hEP2 [5] (setting [10]) and at hEP4 [7] (setting [12]) were 8 nM and 310 nM, respectively.

As to `O=C(O)c1ccc(CCC[C@H]2C(=O)CC[C@@H]2COc2cc(Cl)cc(CO)c2)s1` [5-{3-[(1R,2S)-2-(3-Chloro-5-hydroxymethyl-phenoxymethyl)-5-oxo-cyclopentyl]-propyl}-thiophene-2-carboxylic acid], the EC50 on hEP4 [3] (setting [8]) is greater than 10000 nM; at hEP2 [4] (setting [9]) it was 297 nM; on hEP2 [6] (setting [11]) it was 2 nM. Further, the Ki at hEP2 [5] (setting [10]) stood at 39 nM; on hEP4 [7] (setting [12]), 179 nM.

In the case of `O=C(O)CCC/C=C\C[C@@H]1[C@@H](COc2cc(Cl)cc(Cl)c2)[C@H](O)C[C@H]1Cl` [(Z)-7-[(1R,2S,3R,5R)-5-Chloro-2-(3,5-dichloro-phenoxymethyl)-3-hydroxy-cyclopentyl]-hept-5-enoic acid], the entries for the “maximum ocular surface hyperemia (OSH) score” value in the data set with normotensive dogs [1] (0.05%) and in the data set on normotensive dogs [1] (0.1%) were 0.6 and 1.3, respectively.

Turning to `O=C(O)c1ccc(CCC[C@@H]2[C@@H](COc3cc(Cl)cc(CO)c3)[C@H](O)C[C@H]2Cl)s1` [drawing 36, 5-{3-[(1R,2S,3R,5R)-5-Chloro-2-(3-chloro-5-hydroxymethyl-phenoxymethyl)-3-hydroxy-cyclopentyl]-propyl}-thiophene-2-carboxylic acid], the EC50 is greater than 10000 nM at hEP4 [3] (setting [8]), 3280 nM on hEP2 [4] (setting [9]) and 0.26 nM on hEP2 [6] (setting [11]). Moreover, the Ki on hEP2 [5] (setting [10]) came to 3 nM.

`CCCCCCCc1ccc(OC[C@@H]2[C@@H](CCCc3ccc(C(=O)O)s3)[C@H](Cl)C[C@H]2O)cc1` [5-(3-((1R,2S,3R,5R)-5-chloro-2-((4-heptylphenoxy)methyl)-3-hydroxycyclopentyl)propyl)thiophene-2-carboxylic acid]: the EC50 on hEP4 [3] (setting [13]) was greater than 10000 nM; on hEP2 [4] (setting [14]), 6820 nM; on hEP2 [6] (setting [16]), 46 nM. In addition, the Ki on hEP2 [5] (setting [15]) turned out to be 378 nM; on hEP4 [7] (setting [17]), 4520 nM.

As for `N#C[C@@H]1C[C@@H](O)[C@H](COc2cc(Cl)cc(Cl)c2)[C@H]1CCCc1ccc(C(=O)O)s1` [drawing 40, 5-{3-[(1S,2S,3R,5R)-5-Cyano-2-(3,5-dichloro-phenoxymethyl)-3-hydroxy-cyclopentyl]-propyl}-thiophene-2-carboxylic acid], the figures for the EC50 at hEP4 [3] (setting [8]), at hEP2 [4] (setting [9]) and at hEP2 [6] (setting [11]) were greater than 10000 nM, 15 nM and 0.2 nM, respectively. In addition, the Ki was found to be 3 nM on hEP2 [5] (setting [10]) and 149 nM at hEP4 [7] (setting [12]).

As for `Cc1cc(C)cc(OC[C@@H]2[C@@H](CCCc3ccc(C(=O)O)s3)[C@H](Cl)C[C@H]2O)c1` [drawing 37, 5-{3-[(1R,2S,3R,5R)-5-Chloro-2-(3,5-dimethyl-phenoxymethyl)-3-hydroxy-cyclopentyl]-propyl}-thiophene-2-carboxylic acid], the results for the EC50 at hEP4 [3] (setting [8]), at hEP2 [4] (setting [9]) and on hEP2 [6] (setting [11]) were 2940 nM, 31 nM and 0.2 nM, respectively. The Ki on hEP2 [5] (setting [10]) was 2 nM; on hEP4 [7] (setting [12]), 158 nM.

In the case of `CC(C)OC(=O)c1ccc(CCC[C@@H]2[C@@H](COc3cc(Cl)cc(CO)c3)[C@H](O)C[C@H]2Cl)s1` [Example 14, Isopropyl 5-{3-[(1R,2S,3R,5R)-5-Chloro-2-(3-chloro-5-hydroxymethyl-phenoxymethyl)-3-hydroxy-cyclopentyl]-propyl}-thiophene-2-carboxylate], the “maximum ocular surface hyperemia (OSH) score” value in the data set with normotensive dogs [1] (0.1%) was 1.9. Moreover, the inhibition in vivo at 0.1 % in the data set with normotensive dogs [2] is 36%.

As for `O=C(O)c1ccc(CCC[C@@H]2[C@@H](COc3cc(Cl)cc(CO)c3)[C@H](O)C[C@H]2Cl)s1` [Example 5, 5-{3-[(1R,2S,3R,5R)-5-Chloro-2-(3-chloro-5-hydroxymethyl-phenoxymethyl)-3-hydroxy-cyclopentyl]-propyl}-thiophene-2-carboxylic acid], the “maximum ocular surface hyperemia (OSH) score” value with normotensive dogs [1] (0.1%) is 1.9. In addition, the inhibition in vivo at 0.1 % in the data set with normotensive dogs [2] was determined as 34%.

For `O=C(O)c1ccc(CCC[C@@H]2[C@@H](COc3ccc4c(c3)CCCC4)[C@H](O)C[C@H]2Cl)s1` [5-(3-((1R,2S,3R,5R)-5-chloro-3-hydroxy-2-((5,6,7,8-tetrahydronaphthalen-2-yloxy)methyl)cyclopentyl)propyl)thiophene-2-carboxylic acid], the figures for the EC50 at hEP4 [3] (setting [13]), on hEP2 [4] (setting [14]) and at hEP2 [6] (setting [16]) were greater than 10000 nM, 2490 nM and 12 nM, respectively. For the same compound, the Ki on hEP2 [5] (setting [15]) amounted to 38 nM; on hEP4 [7] (setting [17]) it was 800 nM.

Regarding `CC(=O)OCCc1cc(Cl)cc(OC[C@@H]2[C@@H](C/C=C\CCCC(=O)O)[C@H](Cl)C[C@H]2O)c1` [(Z)-7-{(1R,2S,3R,5R)-2-[3-(2-Acetoxy-ethyl)-5-chloro-phenoxymethyl]-5-chloro-3-hydroxy-cyclopentyl}-hept-5-enoic acid], the EC50 turned out to be 4990 nM at hEP2 [4] (setting [9]) and 18 nM at hEP2 [6] (setting [11]). For the same compound, at hEP2 [5] (setting [10]), the Ki turned out to be 82 nM.

As for `O=C(O)c1ccc(CCC[C@@H]2[C@@H](COc3cc(Cl)cc(CO)c3)CC[C@H]2Cl)s1` [5-{3-[(1R,2R,5S)-2-Chloro-5-(3-chloro-5-hydroxymethyl-phenoxymethyl)-cyclopentyl]-propyl}-thiophene-2-carboxylic acid], the values for the EC50 at hEP4 [3] (setting [8]), at hEP2 [4] (setting [9]) and on hEP2 [6] (setting [11]) were greater than 10000 nM, 6750 nM and 5.2 nM, respectively. For the same compound, the inhibition constant (Ki) at hEP2 [5] (setting [10]) came out at 12 nM; on hEP4 [7] (setting [12]), 197 nM.

With `N#C[C@@H]1C[C@@H](O)[C@H](COc2cc(Cl)cc(Cl)c2)[C@H]1CCCc1ccc(C(=O)O)s1` [Example 9, 5-{3-[(1S,2S,3R,5R)-5-Cyano-2-(3,5-dichloro-phenoxymethyl)-3-hydroxy-cyclopentyl]-propyl}-thiophene-2-carboxylic acid], in the data set on normotensive dogs [1] (0.01%), the “maximum ocular surface hyperemia (OSH) score” value was found to be 1.2. The inhibition in vivo at 0.01 % with normotensive dogs [2] came out at 17%.
